{"source": "patent US5190741A", "about": "“Agents for diagnosing and treating melanomas, aromatic halogenated derivatives usable as such agents and their preparation” (Institut National de la Sante et de la Recherche Medicale …, priority 1989, dated 1993)", "key": {"[1]": {"experiment": "LD50 determination, i.v. (Karber and Behrens)", "conditions": "mouse, in vivo, iv", "description": "(§1) The determination of the LD50 is made in the mouse after i.v. injection of the molecules according to the methodology described by Karber and Behrens.\n(§2) 6 weeks old male nu/nu SSCUP nude mice, […]"}, "[2]": {"test_system": "6 weeks old male nu/nu SSCUP nude mice", "experiment": "LD50 determination, i.v. (Karber and Behrens)", "conditions": "mouse, in vivo, iv", "description": "as §1, §2"}, "[3]": {"test_system": "Dau amelanic human melanoma", "experiment": "Tissue distribution in Swiss nu/nu SSCUP mice bearing Dau", "type": "in vivo", "procedure": "The study of the tissue distribution of the ^125 I labelled compounds was performed in mice bearing grafted melanomas (cf. autoradiograms above). […] The animals are sacrificed at different time intervals of 1 to 24 hours after the injection. The blood is collected and the principal organs are excised. Aliquots are weighed and the radioactivity of the samples is measured in a […] 1191 counter (analytic tracer). The counting yield for iodine 125 is 60%. The results are expressed: as a percentage of the injected dose bound per g of tissue (% ID/g); in the form of the ratios [formula] This ratio reflects more precisely the selectivity of a molecule for an organ (tables 2, 4, 6, 8, 10 and 12)."}}}
{"smiles": "CCN(CC)CCNC(=O)c1ccc(I)cc1", "note": "[Derivative A, N-(2-diethylaminoethyl) 4-iodo benzamide]", "values": [{"measurement": "LD50", "setting": "[1]", "result": 90, "unit": "mg/kg"}, {"measurement": "LD 0", "setting": "[2]", "result": 60, "unit": "mg/kg"}, {"measurement": "LD 100", "setting": "[2]", "result": 150, "unit": "mg/kg"}]}
{"smiles": "CCNCCNC(=O)c1ccc(I)cc1", "note": "[Derivative B, N-(2-ethylaminoethyl) 4-iodo benzamide]", "values": [{"measurement": "intratumoral concentrations compared with A", "setting": "[3]; 4 to 6 h, Dau", "result": "slightly higher"}, {"measurement": "brain/blood ratio", "setting": "[3]; 1 h", "result": "1,44 ± 0,069"}, {"measurement": "eye/blood ratio", "setting": "[3]; 1 h", "result": "0,57 ± 0,011"}, {"measurement": "intestine/blood ratio", "setting": "[3]; 1 h", "result": "3,44 ± 0,231"}, {"measurement": "kidney/blood ratio", "setting": "[3]; 1 h", "result": "9,10 ± 0,286"}, {"measurement": "liver/blood ratio", "setting": "[3]; 1 h", "result": "5,56 ± 0,225"}, {"measurement": "lungs/blood ratio", "setting": "[3]; 1 h", "result": "6 ± 0,353"}, {"measurement": "muscle/blood ratio", "setting": "[3]; 1 h", "result": "1,17 ± 0,040"}, {"measurement": "pancreas/blood ratio", "setting": "[3]; 1 h", "result": "3,20 ± 0,099"}, {"measurement": "plasma/blood ratio", "setting": "[3]; 1 h", "result": "0,80 ± 0,017"}, {"measurement": "spleen/blood ratio", "setting": "[3]; 1 h", "result": "2,84 ± 0,091"}, {"measurement": "stomach/blood ratio", "setting": "[3]; 1 h", "result": "2,66 ± 0,101"}, {"measurement": "submaxillary glands/blood ratio", "setting": "[3]; 1 h", "result": "4,82 ± 0,285"}, {"measurement": "tumor/blood ratio", "setting": "[3]; 1 h", "result": "1,33 ± 0,015"}, {"measurement": "brain/blood ratio", "setting": "[3]; 2 h", "result": "1,43 ± 0,261"}, {"measurement": "eye/blood ratio", "setting": "[3]; 2 h", "result": "0,55 ± 0,052"}, {"measurement": "intestine/blood ratio", "setting": "[3]; 2 h", "result": "2,87 ± 0,34"}, {"measurement": "kidney/blood ratio", "setting": "[3]; 2 h", "result": "7,00 ± 1,03"}, {"measurement": "liver/blood ratio", "setting": "[3]; 2 h", "result": "3,62 ± 0,68"}, {"measurement": "lungs/blood ratio", "setting": "[3]; 2 h", "result": "6,33 ± 1,166"}, {"measurement": "muscle/blood ratio", "setting": "[3]; 2 h", "result": "0,98 ± 0,182"}, {"measurement": "pancreas/blood ratio", "setting": "[3]; 2 h", "result": "2,42 ± 0,36"}, {"measurement": "plasma/blood ratio", "setting": "[3]; 2 h", "result": "0,89 ± 0,068"}, {"measurement": "spleen/blood ratio", "setting": "[3]; 2 h", "result": "2,31 ± 0,36"}, {"measurement": "stomach/blood ratio", "setting": "[3]; 2 h", "result": "3,40 ± 0,694"}, {"measurement": "submaxillary glands/blood ratio", "setting": "[3]; 2 h", "result": "4,48 ± 0,220"}, {"measurement": "tumor/blood ratio", "setting": "[3]; 2 h", "result": "1,39 ± 0,103"}, {"measurement": "brain/blood ratio", "setting": "[3]; 4 h", "result": "2,21 ± 0,304"}, {"measurement": "eye/blood ratio", "setting": "[3]; 4 h", "result": "0,71 ± 0,056"}, {"measurement": "intestine/blood ratio", "setting": "[3]; 4 h", "result": "4,08 ± 0,599"}, {"measurement": "kidney/blood ratio", "setting": "[3]; 4 h", "result": "8,03 ± 0,813"}, {"measurement": "liver/blood ratio", "setting": "[3]; 4 h", "result": "5,21 ± 0,519"}, {"measurement": "lungs/blood ratio", "setting": "[3]; 4 h", "result": "8,77 ± 0,838"}, {"measurement": "muscle/blood ratio", "setting": "[3]; 4 h", "result": "1,24 ± 0,153"}, {"measurement": "pancreas/blood ratio", "setting": "[3]; 4 h", "result": "2,70 ± 0,300"}, {"measurement": "plasma/blood ratio", "setting": "[3]; 4 h", "result": "0,94 ± 0,058"}, {"measurement": "spleen/blood ratio", "setting": "[3]; 4 h", "result": "2,07 ± 0,256"}, {"measurement": "stomach/blood ratio", "setting": "[3]; 4 h", "result": "4,34 ± 0,924"}, {"measurement": "submaxillary glands/blood ratio", "setting": "[3]; 4 h", "result": "5,44 ± 0,297"}, {"measurement": "tumor/blood ratio", "setting": "[3]; 4 h", "result": "2,68 ± 0,757"}, {"measurement": "brain/blood ratio", "setting": "[3]; 6 h", "result": "0,44 ± 0,060"}, {"measurement": "eye/blood ratio", "setting": "[3]; 6 h", "result": "0,36 ± 0,023"}, {"measurement": "intestine/blood ratio", "setting": "[3]; 6 h", "result": "1,97 ± 0,112"}, {"measurement": "kidney/blood ratio", "setting": "[3]; 6 h", "result": "2,01 ± 0,252"}, {"measurement": "liver/blood ratio", "setting": "[3]; 6 h", "result": "1,43 ± 0,439"}, {"measurement": "lungs/blood ratio", "setting": "[3]; 6 h", "result": "1,82 ± 0,187"}, {"measurement": "muscle/blood ratio", "setting": "[3]; 6 h", "result": "0,24 ± 0,056"}, {"measurement": "pancreas/blood ratio", "setting": "[3]; 6 h", "result": "0,76 ± 0,050"}, {"measurement": "plasma/blood ratio", "setting": "[3]; 6 h", "result": "1,16 ± 0,016"}, {"measurement": "spleen/blood ratio", "setting": "[3]; 6 h", "result": "0,62 ± 0,045"}, {"measurement": "stomach/blood ratio", "setting": "[3]; 6 h", "result": "3,78 ± 0,400"}, {"measurement": "submaxillary glands/blood ratio", "setting": "[3]; 6 h", "result": "5,16 ± 0,853"}, {"measurement": "tumor/blood ratio", "setting": "[3]; 6 h", "result": "0,65 ± 0,025"}, {"measurement": "brain/blood ratio", "setting": "[3]; 8 h", "result": "1,31 ± 0,180"}, {"measurement": "eye/blood ratio", "setting": "[3]; 8 h", "result": "0,60 ± 0,040"}, {"measurement": "intestine/blood ratio", "setting": "[3]; 8 h", "result": "3,30 ± 0,269"}, {"measurement": "kidney/blood ratio", "setting": "[3]; 8 h", "result": "3,72 ± 0,573"}, {"measurement": "liver/blood ratio", "setting": "[3]; 8 h", "result": "6,03 ± 0,678"}, {"measurement": "lungs/blood ratio", "setting": "[3]; 8 h", "result": "3,69 ± 0,585"}, {"measurement": "muscle/blood ratio", "setting": "[3]; 8 h", "result": "0,74 ± 0,216"}, {"measurement": "pancreas/blood ratio", "setting": "[3]; 8 h", "result": "1,22 ± 0,151"}, {"measurement": "plasma/blood ratio", "setting": "[3]; 8 h", "result": "0,19 ± 0,020"}, {"measurement": "spleen/blood ratio", "setting": "[3]; 8 h", "result": "1,28 ± 0,158"}, {"measurement": "stomach/blood ratio", "setting": "[3]; 8 h", "result": "5,35 ± 0,355"}, {"measurement": "submaxillary glands/blood ratio", "setting": "[3]; 8 h", "result": "3,65 ± 0,266"}, {"measurement": "tumor/blood ratio", "setting": "[3]; 8 h", "result": "1,17 ± 0,314"}, {"measurement": "brain/blood ratio", "setting": "[3]; 12 h", "result": "0,74 ± 0,072"}, {"measurement": "eye/blood ratio", "setting": "[3]; 12 h", "result": "0,88 ± 0,081"}, {"measurement": "intestine/blood ratio", "setting": "[3]; 12 h", "result": "3,20 ± 0,502"}, {"measurement": "kidney/blood ratio", "setting": "[3]; 12 h", "result": "5,46 ± 0,217"}, {"measurement": "liver/blood ratio", "setting": "[3]; 12 h", "result": "13,34 ± 0,462"}, {"measurement": "lungs/blood ratio", "setting": "[3]; 12 h", "result": "3,04 ± 0,401"}, {"measurement": "muscle/blood ratio", "setting": "[3]; 12 h", "result": "0,45 ± 0,111"}, {"measurement": "pancreas/blood ratio", "setting": "[3]; 12 h", "result": "5 ± 0,310"}, {"measurement": "plasma/blood ratio", "setting": "[3]; 12 h", "result": "0,16 ± 0,037"}, {"measurement": "spleen/blood ratio", "setting": "[3]; 12 h", "result": "3,68 ± 0,493"}, {"measurement": "stomach/blood ratio", "setting": "[3]; 12 h", "result": "7,03 ± 0,728"}, {"measurement": "submaxillary glands/blood ratio", "setting": "[3]; 12 h", "result": "2,52 ± 0,236"}, {"measurement": "tumor/blood ratio", "setting": "[3]; 12 h", "result": "1,11 ± 0,059"}, {"measurement": "brain/blood ratio", "setting": "[3]; 24 h", "result": "0,22 ± 0,029"}, {"measurement": "eye/blood ratio", "setting": "[3]; 24 h", "result": "0,94 ± 0,213"}, {"measurement": "intestine/blood ratio", "setting": "[3]; 24 h", "result": "1,16 ± 0,141"}, {"measurement": "kidney/blood ratio", "setting": "[3]; 24 h", "result": "4,64 ± 0,328"}, {"measurement": "liver/blood ratio", "setting": "[3]; 24 h", "result": "21,88 ± 1,493"}, {"measurement": "lungs/blood ratio", "setting": "[3]; 24 h", "result": "1,72 ± 0,182"}, {"measurement": "muscle/blood ratio", "setting": "[3]; 24 h", "result": "0,27 ± 0,043"}, {"measurement": "pancreas/blood ratio", "setting": "[3]; 24 h", "result": "1,40 ± 0,120"}, {"measurement": "plasma/blood ratio", "setting": "[3]; 24 h", "result": "1,07 ± 0,154"}, {"measurement": "spleen/blood ratio", "setting": "[3]; 24 h", "result": "11,17 ± 1,75"}, {"measurement": "stomach/blood ratio", "setting": "[3]; 24 h", "result": "2,28 ± 0,165"}, {"measurement": "submaxillary glands/blood ratio", "setting": "[3]; 24 h", "result": "1,81 ± 0,169"}, {"measurement": "tumor/blood ratio", "setting": "[3]; 24 h", "result": "0,79 ± 0,092"}, {"measurement": "tumor/blood ratios compared with A", "setting": "[3]; Dau", "result": "not significantly different"}]}
